Measured values reported in patent US20230286973A1, “PROTEIN SECRETION INHIBITORS” (KEZAR LIFE SCIENCES, priority 2020, published 2023).
Read-outs that look alike come from different tables or passages of the source.

Legend:
[1] = tested on: multiple myeloma cell line NCI-H929; experiment: H929 Cell Viability Assay; format: cell-based, human; settings: Homo sapiens, NCI-H929, 48 h, NCI-H929 cells, Celltiter-Glo
Procedure, shortened: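 Plate the myeloma cells in RPMI 1640 with 10% FBS, add serially diluted compound, incubate for 48 hours at 37° C, then add CellTiter-Glo and read luciferase signal.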

[2] = Liver Microsome Stability Assay (monkey); settings: monkey liver microsomes, with NADPH, 1.0 uM compound
Protocol: (§1) Stability of a compound was assessed in the presence of liver microsomes from various sources—mouse, rat, monkey and human liver microsomes. 1.0 uM compound, 0.4% DMSO in 0.1 M Potassium Phosphate with 1.0 mg/mL liver microsomes, were incubated at 37° C. with or without 1 mM NADPH. The samples were quenched at 0, and 30 minutes.

[3] = tested on: PD1-ss+10aa/Gaussia Luciferase; experiment: Dox-Induced PD1-ss-Gluc Assay; format: cell-based; settings: 24 hr Dox induction, 293FRT/TO cells, read-out: 24 hr Dox Inducible PD1ssGluc 293FRT/TO: Mean IC50
Procedure, shortened: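 Doxycycline-induced expression of a PD1-ss+10aa/Gaussia luciferase reporter is measured in stable Flp-In 293 T-REx cells. Compound dilutions containing doxycycline are added one day after plating and incubated at 37 °C, 5% CO2. Values for unassigned stereocentres refer to stereoisomer mixtures.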

[4] = tested on: TNFα-FL/Gaussia Luciferase; experiment: Dox Induced TNFα-FL-Gluc Assay; format: cell-based; settings: for IC50: 24 hr Dox induction, 293FRT/TO cells, read-out: 24 hr Dox Inducible TNFaFLGluc 293FRT/TO: Mean IC50; for 24 hr Dox Inducible TNFaFLGluc 293FRT/TO: TNF/PD1: ratio of TNFaFLGluc IC50 to PD1ssGluc IC50
Procedure, shortened: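 Cells are seeded one day ahead, then treated with compound plus doxycycline at 37 °C, 5% CO2. The stable Flp-In 293 T-REx line expresses full-length TNFα (amino acids 1-233) with Gaussia luciferase fused to its 3′ end, inducibly via T-REx.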

[5] = Liver Microsome Stability Assay (human); settings: human liver microsomes, with NADPH, 1.0 uM compound
Protocol: as §1

[6] = tested on: multiple myeloma cell line U266B1; experiment: U266 Cell Viability Assay; format: cell-based, human; settings: Homo sapiens, U-266, 48 h, U266B1 cells, Celltiter-Glo
Procedure, shortened: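 48 h treatment, 37° C./5% CO2, RPMI 1640 + 10% FBS; viability by CellTiter-Glo luminescence.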

[7] = tested on: HER3-ss+4aa/Gaussia Luciferase; experiment: Dox-Induced Her3-ss-Gluc Assay; format: cell-based; settings: 24 hr Dox induction, 293FRT/TO cells, read-out: 24 hr Dox Inducible Her3(ss + 4)Gluc 293FRT/TO: Mean IC50
Procedure, shortened: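 Expression of a Gaussia luciferase reporter carrying the HER3 signal sequence plus 4 amino acids is induced by doxycycline in stably transfected Flp-In 293 T-REx cells. Compounds are added with doxycycline at 37° C., 5% CO2. Undefined stereocentres denote stereoisomer mixtures.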

[8] = Liver Microsome Stability Assay (mouse); settings: mouse liver microsomes, with NADPH, 1.0 uM compound
Protocol: as §1

[9] = tested on: IL-2-FL/Gaussia Luciferase; experiment: Dox Induced IL2-FL-Gluc Assay; format: cell-based; settings: for IC50: 24 hr Dox induction, 293FRT/TO cells, read-out: 24 hr Dox Inducible IL2FLGluc 293FRT/TO: Mean IC50; for 24 hr Dox Inducible IL2FLGluc 293FRT/TO: IL2/PD1: ratio of IL2FLGluc IC50 to PD1ssGluc IC50
Procedure, shortened: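 Reporter is Gaussia luciferase fused to the 3′ end of full-length IL-2 (aa 1-153), expressed from a doxycycline-inducible T-REx construct in stably selected Flp-In 293 cells. Compounds were co-added with doxycycline and incubated at 37° C, 5% CO2.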

[10] = Liver Microsome Stability Assay (rat); settings: rat liver microsomes, with NADPH, 1.0 uM compound
Protocol: as §1

[11] = '<=>' given where both are I.A.

SMILES	EC50 [1] [µM]	Liver Microsome Stability (Multiple Species): Monkey - % Remaining after 30 min w/NADPH [2] [%]	IC50 ([3]; mean) [µM]	IC50 ([4]; mean) [µM]	Liver Microsome Stability (Multiple Species): Human - % Remaining after 30 min w/NADPH [5] [%]	EC50 [6] [µM]	IC50 ([7]; mean) [µM]	Liver Microsome Stability (Multiple Species): Mouse - % Remaining after 30 min w/NADPH [8] [%]	IC50 ([9]; mean) [µM]	Liver Microsome Stability (Multiple Species): Rat - % Remaining after 30 min w/NADPH [10] [%]	IC50 [3] [µM]	IC50 [4] [µM]	IC50 [7] [µM]	IC50 [9] [µM]	24 hr Dox Inducible TNFaFLGluc 293FRT/TO: TNF/PD1 [4, 11]	24 hr Dox Inducible IL2FLGluc 293FRT/TO: IL2/PD1 [9, 11]	24 hr Dox Inducible TNFaFLGluc 293FRT/TO: TNF/PD1 [4]	24 hr Dox Inducible IL2FLGluc 293FRT/TO: IL2/PD1 [9]
CC(=O)N1CCC(Cc2ccc(N3CCC[C@@H]3c3csc(NC(=O)c4cccn4Cc4ccnc(F)c4)n3)cc2)CC1 [Compound A160, (R)-N-(4-(1-(4-((1-acetylpiperidin-4-yl)methyl)phenyl)pyrrolidin-2-yl)thiazol-2-yl)-1-((2-fluoropyridin-4-yl)methyl)-1H-pyrrole-2-carboxamide]	2.67	0.18			0.66	> 25		6.28		16.8	0.0481	0.691	0.0824	0.096			14.3	2
C[C@H](O)c1ccc(N2CCC[C@@H]2c2csc(NC(=O)c3cccn3Cc3ccnc(F)c3)n2)cc1 [Compound A112, 1-((2-fluoropyridin-4-yl)methyl)-N-(4-((R)-1-(4-((S)-1-hydroxyethyl)phenyl)pyrrolidin-2-yl)thiazol-2-yl)-1H-pyrrole-2-carboxamide]	0.408	0.35			3.41	> 25		5.81		6.03	0.00381	0.04	0.00598	0.00864			10.5	2.3
CC(=O)N1CCC(c2ccc(N3CCC[C@@H]3c3csc(NC(=O)c4cccn4Cc4ccncc4)n3)cc2)CC1 [Compound A55, (R)-N-(4-(1-(4-(1-acetylpiperidin-4-yl)phenyl)pyrrolidin-2-yl)thiazol-2-yl)-1-(pyridin-4-ylmethyl)-1H-pyrrole-2-carboxamide]	0.682	0.1			0.34	> 25		18.3		0.11	0.0195	0.426	0.0414	0.0581			21.8	3
CC(=O)N1CCC(Oc2ccc(N3CCC[C@@H]3c3csc(NC(=O)c4cccn4Cc4ccnc(F)c4)n3)cc2Cl)CC1 [Compound A140, (R)-N-(4-(1-(4-((1-acetylpiperidin-4-yl)oxy)-3-chlorophenyl)pyrrolidin-2-yl)thiazol-2-yl)-1-((2-fluoropyridin-4-yl)methyl)-1H-pyrrole-2-carboxamide]	0.418	8.54			14	> 25		16.1		12.8	0.0139	0.361	0.00988	0.0337			25.9	2.4

More lines, main results first:

EC50 [1] [µM]	Liver Microsome Stability (Multiple Species): Monkey - % Remaining after 30 min w/NADPH [2] [%]	IC50 ([3]; mean) [µM]	IC50 ([4]; mean) [µM]	Liver Microsome Stability (Multiple Species): Human - % Remaining after 30 min w/NADPH [5] [%]	EC50 [6] [µM]	IC50 ([7]; mean) [µM]	Liver Microsome Stability (Multiple Species): Mouse - % Remaining after 30 min w/NADPH [8] [%]	IC50 ([9]; mean) [µM]	Liver Microsome Stability (Multiple Species): Rat - % Remaining after 30 min w/NADPH [10] [%]	IC50 [3] [µM]	IC50 [4] [µM]	IC50 [7] [µM]	IC50 [9] [µM]	SMILES	24 hr Dox Inducible TNFaFLGluc 293FRT/TO: TNF/PD1 [4, 11]	24 hr Dox Inducible IL2FLGluc 293FRT/TO: IL2/PD1 [9, 11]	24 hr Dox Inducible TNFaFLGluc 293FRT/TO: TNF/PD1 [4]	24 hr Dox Inducible IL2FLGluc 293FRT/TO: IL2/PD1 [9]
16.9	0.22	0.0318	23.6	0.29	21.2	> 25	15.8	> 25	4.95					CCn1cnc(/C=C/c2csc(NC(=O)c3cccn3Cc3ccnc(F)c3)n2)c1C [Compound B117, (E)-N-(4-(2-(1-ethyl-5-methyl-1H-imidazol-4-yl)vinyl)thiazol-2-yl)-1-((2-fluoropyridin-4-yl)methyl)-1H-pyrrole-2-carboxamide]	743	>790		
11.9	0.58	0.13	3.42	11.5	> 25	0.216	1.4	0.399	0.79					O=C(Nc1nc([C@H]2CCCN2c2ccccc2)cs1)c1cccn1Cc1ccncc1Br [Compound E22, (R)-1-((3-bromopyridin-4-yl)methyl)-N-(4-(1-phenylpyrrolidin-2-yl)thiazol-2-yl)-1H-pyrrole-2-carboxamide]	26.4	3.1		
11.2	1.39			5.98	> 25		14.5		2.11	0.0381	3.84	0.878	1.67	O=C(Nc1nc(/C=C/c2ncoc2C2CCCCC2)cs1)c1cccn1Cc1ccnc(F)c1 [Compound B53, (E)-N-(4-(2-(5-cyclohexyloxazol-4-yl)vinyl)thiazol-2-yl)-1-((2-fluoropyridin-4-yl)methyl)-1H-pyrrole-2-carboxamide]			101	44
> 25	0.51			0.38	> 25		44.9		32.4	2.21	> 25	> 25	> 25	CC(CC#N)n1cnc(/C=C/c2csc(NC(=O)c3cccn3Cc3ccnc(F)c3)n2)c1 (stereo not drawn) [Compound B110, (E)-N-(4-(2-(1-(1-cyanopropan-2-yl)-1H-imidazol-4-yl)vinyl)thiazol-2-yl)-1-((2-fluoropyridin-4-yl)methyl)-1H-pyrrole-2-carboxamide]			>11.3	>11
> 25	44.2	2.31	> 25	64.9	> 25	1.21	52.1	1.33	50.2					O=C(Nc1nc([C@H]2CCCN2c2ccccc2)cs1)c1cccn1Cc1cccc(Br)c1 [Compound C121, (R)-1-(3-bromobenzyl)-N-(4-(1-phenylpyrrolidin-2-yl)thiazol-2-yl)-1H-pyrrole-2-carboxamide]	>10.8	0.58		
